Consider 30 molecules from paper PMC12990037, “Discovery of Two Structurally Distinct Classes of Inhibitors Targeting the Nuclease MUS81 and Enhancing Efficacy of Chemotherapy in Cancer Cells” (Journal of Medicinal Chemistry, 2026).

In series [1] the test system is U2OS cells. In words: Annexin V apoptotic assay. Type of series: cell-based. The settings on record: CPT 100 μM for the last 2 h. On the procedure:
(§1) Given these promising findings, we further investigated the specificity of MU262 and MU876 and potential short-term cytotoxicity. To mirror the treatment duration used in BIR and HR assays, U2OS cells were exposed to the inhibitors or siRNA for 3 days.
U2OS WT cells (300,000) were seeded in a 6-well plate, a subset of them was treated with either control siRNA or siRNA targeting MUS81. After adhesion, cells were treated with the respective inhibitors for 72 h during which CPT (100 μM, Sigma-Aldrich) was added for the last 2 h. Cells were harvested, washed in ice-cold PBS, and collected by centrifugation at 500g for 5 min. Cells were simultaneously stained with FITC-labeled annexin V antibody (556419, Becton Dickinson) and PI (5 μL) at room temperature for 15 min, protected from light. Stained cells were analyzed using a BD FACSVerse flow cytometer (Becton Dickinson) and FlowJo software (BD Life Sciences). At least 20,000 cells were used for each measurement, and experiments were performed in duplicates.

The test system of series [2] is U2OS cells. Kind of series: EdU/PI cell cycle assay. In kind it is cell-based. The following applies: CPT 100 μM for the last 16 h. As for the experimental part: as §1
U2OS WT cells (300,000) were seeded in a 6-well plate; a subset of them was treated with either control siRNA or siRNA targeting MUS81. After adhesion, cells were treated with the respective inhibitors for 72 h during which CPT ([…], Sigma-Aldrich) was added for the last 16 h and 10 μM EdU (Sigma-Aldrich) was added for the last 1 h. Cells were then harvested and stained by using the Click-iT EdU Alexa Fluor 647 Flow Cytometry Assay Kit (Thermo Fisher Scientific). Finally, cells were resuspended in 1xPBS containing 5 μg/mL of propidium iodide (PI) and analyzed using a BD FACSVerse flow cytometer (Becton Dickinson) and FlowJo software (BD Life Sciences). At least 20,000 cells were used for each measurement, and experiments were performed in duplicates.

The target in the next series is T1, MUS81–EME1 (Homo sapiens, UniProt Q96NY9).
T1 construct: The MUS81–EME1 full-length expression plasmid was obtained from Stephen C; West; made in house; host or cells: Escherichia coli
T1 sequence (Q96NY9 1-551): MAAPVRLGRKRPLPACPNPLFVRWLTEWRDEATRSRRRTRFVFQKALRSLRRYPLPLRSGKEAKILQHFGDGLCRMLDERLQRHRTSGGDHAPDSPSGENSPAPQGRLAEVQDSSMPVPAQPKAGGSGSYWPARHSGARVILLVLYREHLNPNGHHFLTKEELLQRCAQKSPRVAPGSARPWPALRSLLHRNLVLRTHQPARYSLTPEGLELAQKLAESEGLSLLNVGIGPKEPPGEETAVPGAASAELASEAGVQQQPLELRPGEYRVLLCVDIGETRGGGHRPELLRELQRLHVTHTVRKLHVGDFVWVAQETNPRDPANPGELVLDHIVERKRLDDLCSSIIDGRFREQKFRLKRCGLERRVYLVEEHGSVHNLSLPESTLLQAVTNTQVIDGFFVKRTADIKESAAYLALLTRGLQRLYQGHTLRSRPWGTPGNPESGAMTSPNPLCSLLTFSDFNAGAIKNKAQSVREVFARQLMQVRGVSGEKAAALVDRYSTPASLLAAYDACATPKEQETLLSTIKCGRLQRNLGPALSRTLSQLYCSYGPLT
T1 sequence (Q96AY2 1-570 partner): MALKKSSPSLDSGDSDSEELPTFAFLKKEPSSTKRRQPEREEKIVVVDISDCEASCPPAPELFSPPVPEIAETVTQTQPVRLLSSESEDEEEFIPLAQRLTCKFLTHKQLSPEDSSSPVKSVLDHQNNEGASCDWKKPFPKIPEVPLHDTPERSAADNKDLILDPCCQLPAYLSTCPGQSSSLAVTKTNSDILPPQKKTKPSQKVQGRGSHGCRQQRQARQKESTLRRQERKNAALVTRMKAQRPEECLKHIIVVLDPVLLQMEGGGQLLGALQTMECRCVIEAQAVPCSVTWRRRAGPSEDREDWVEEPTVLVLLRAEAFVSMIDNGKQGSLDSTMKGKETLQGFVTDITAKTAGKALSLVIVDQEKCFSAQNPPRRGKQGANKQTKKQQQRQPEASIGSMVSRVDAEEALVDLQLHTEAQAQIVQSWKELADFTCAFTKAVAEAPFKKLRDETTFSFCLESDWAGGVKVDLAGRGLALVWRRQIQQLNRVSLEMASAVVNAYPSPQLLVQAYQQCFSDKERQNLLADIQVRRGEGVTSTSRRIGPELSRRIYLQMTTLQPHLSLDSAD
Kind of series: Gel-based in vitro nuclease assay: cleavage of 3′flap DNA by purified MUS81–EME1. Type of series: biochemical. The following applies: for activity in the in vitro assay: negative control compounds. On the procedure: To identify the small-molecule inhibitors of MUS81, we used two complementary screening approaches. The first involved a structure-based virtual screening, where over 140,000 small molecules were docked into the active site of MUS81 using AutoDock Vina software. […] The cleavage by purified MUS81-EME1 was monitored by gel electrophoresis, and the compound activity was quantified by measuring the reduction in cleavage product intensity.
Nuclease assays were performed in reaction buffer containing 50 mM Tris pH 7.5, 10 mM MgCl2, 1 mM DTT, 85 mM KCl, and 20% glycerol. Purified MUS81–EME1 (1 nM) was preincubated in 9 μL reaction with indicated concentrations of inhibitors for 15 min at room temperature, followed by the addition of 3 nM of a 3′flap DNA substrate (listed in Supplementary Table 9) and a further incubation for 15 min at 37 °C. The final concentration of DMSO in the reactions was 2%. The reactions were stopped by the addition of 0.1% SDS and 500 μg/mL of proteinase K, followed by incubation for 5 min at 37 °C. […] The fluorescent DNA was visualized using a FLA-9000 (Fujifilm). Bands corresponding to cleaved substrates were selected for quantification using the MultiGauge 3.2 software. Final data represent integrated density of these bands with background subtraction. Fitting of the data with sigmoid curves was performed in OriginPro (OriginLab).

The nature of series [3]: Solubility in aqueous DMSO. Type of series: physicochemical.
The target of series [4] is T2, MUS81–EME1 binding to 3′ flap DNA substrate (Homo sapiens, UniProt Q96NY9).
T2 construct: The MUS81–EME1 full-length expression plasmid was obtained from Stephen C; West; made in house; host or cells: Escherichia coli
T2 sequence (Q96NY9 1-551): T1 sequence (Q96NY9 1-551)
T2 sequence (Q96AY2 1-570 partner): T1 sequence (Q96AY2 1-570 partner)
In words: Electrophoretic mobility shift assay (EMSA). The settings on record: MUS81–EME1 160 nM, no MgCl2.
Method: (A,B) Purified MUS81–EME1 (160 nM) was incubated with increasing concentrations of MU262, MU876, or their respective control analogues, followed by the addition of 3 nM fluorescently labeled 3′ flap DNA substrate. MgCl2 was omitted from the reaction buffer to prevent substrate cleavage. The reaction products were resolved on a native PAGE gel. The lower band represents a free DNA substrate, while the upper smear corresponds to the MUS81–DNA complex. n = 3.
Purified MUS81–EME1 (160 nM) was incubated in a modified assay buffer without MgCl2 (50 mM Tris–HCl pH 7.4, 150 mM NaCl, and 0.05% Tween-20) with 15 nM of a 3′flap DNA substrate (listed in Supplementary Table 5) in the absence or presence of selected inhibitors at RT for 10 min, followed by an incubation at 25 °C for 10 min. The reaction was stopped on ice and products were resolved using native PAGE (7.5% acrylamide gel in 0.5% TBE) at 4 °C for 50 min (6.5 V/cm). Gel images were captured using a FLA-9000 (Fujifilm) and Typhoon (Amersham) scanners and quantified with Multi Gauge V3.2 software (Fujifilm).

Turning to `CC[C@@]1(O)C(=O)OCc2c1cc1n(c2=O)Cc2cc3ccccc3nc2-1` [CPT, camptothecin, reference compound], the “apoptosis (Annexin V staining)” value in the series with U2OS cells [1] is reported as “robust apoptosis”. Besides, the cell cycle profile entry in the series with U2OS cells [2] is on record as “reduced the proportion of S phase cells”.

The molecule `Nc1c(-c2nc3ccccc3[nH]2)nnc2ccnn12` [Compound 3] displayed an IC50 at MUS81–EME1 (Table 1, in vitro) of over 50 µM.

The molecule `Nc1c(-c2nc3ccccc3[nH]2)nnc2c(-c3ccc(F)cc3)cnn12` [Compound 4] displayed an IC50 against MUS81–EME1 (Table 1, in vitro) of over 50 µM.

As to `CCc1cc2nnc(-c3nc4ccccc4[nH]3)c(N)n2n1` [Compound 5], at MUS81–EME1 (Table 1, in vitro), the IC50 is over 5 µM.

As to `CCc1nn2c(N)c(-c3nc4ccccc4[nH]3)nnc2c1-c1ccc(OC)cc1` [Compound 7], at MUS81–EME1 (Table 1, in vitro), the IC50 was over 25 µM.

Take `Nc1c(-c2nc3ccccc3[nH]2)nnc2cc(-c3cccc4ccccc34)nn12` [Compound 12]: 1.8 µM corresponded to half-maximal inhibition on MUS81–EME1 (Table 1, in vitro) (IC50). The “solubility in aqueous DMSO” value in series [3] is listed as “only sparingly soluble in aqueous DMSO”.

Take `Nc1c(-c2nc3ccccc3[nH]2)nnc2cc(-c3ccccc3Oc3ccccc3)nn12` [Compound 13]: the “solubility in aqueous DMSO” value in series [3] is given as “only sparingly soluble in aqueous DMSO”.

Take `Nc1c(-c2nc3ccccc3[nH]2)nnc2cc(-c3ccc4ccccc4c3)nn12` [Compound 14]: the “solubility in aqueous DMSO” value in series [3] is reported as “only sparingly soluble in aqueous DMSO”.

As to `Nc1c(-c2nc3ccccc3[nH]2)nnc2cc(-c3ccccc3)nn12` [Compound 15], the “solubility in aqueous DMSO” value in series [3] is recorded as “only sparingly soluble in aqueous DMSO”.

Take `CCc1nn2cc(-c3nc4ccccc4[nH]3)nnc2c1-c1ccc(F)cc1` [Compound 16]: the IC50 against MUS81–EME1 (Table 1, in vitro) is over 10 µM.

`CCc1nn2c(C)c(-c3nc4ccccc4[nH]3)nnc2c1-c1ccc(F)cc1` [Compound 17]: the IC50 against MUS81–EME1 (Table 1, in vitro) was over 10 µM. Further, the “activity in the in vitro assay” value at MUS81–EME1 is “no activity”. In addition, in series [4], the “effect on MUS81–EME1 binding to 3′ flap DNA (EMSA)” value is “neither MU262 nor its inactive analogue MU1066 disrupted the MUS81–DNA interaction”.

Consider `CCc1nn2c(O)c(-c3ncccn3)nnc2c1-c1ccc(F)cc1` [Compound 20], for which, on MUS81–EME1 (Table 1, in vitro), the IC50 was over 40 µM.

On MUS81–EME1 (Table 1, in vitro), `CCc1nn2c(N)c(C(N)=O)nnc2c1-c1ccc(F)cc1` [Compound 21] returned an IC50 of over 50 µM.

On MUS81–EME1 (Table 1, in vitro), `CCc1nn2c(N)c(-c3nc4ccccc4n3Cc3ccccc3)nnc2c1-c1ccc(F)cc1` [Compound 22] gave an IC50 of 8 µM.

On to `CCc1nn2c(O)c(-c3nc4ccccc4n3CCN(C)C)nnc2c1-c1ccc(F)cc1` [Compound 23], for which the IC50 on MUS81–EME1 (Table 1, in vitro) is over 10 µM.

`CCc1nn2c(O)c(-c3nc4ccccc4n3CCN3CCOCC3)nnc2c1-c1ccc(F)cc1` [Compound 24] returned an IC50 at MUS81–EME1 (Table 1, in vitro) of over 10 µM.

As for `CCc1nn2c(O)c(-c3nccn3C)nnc2c1-c1ccc(F)cc1` [Compound 25], the IC50 against MUS81–EME1 (Table 1, in vitro) is over 40 µM. Besides, the “activity in the in vitro assay” value on MUS81–EME1 is “no activity”.

Regarding `CCc1nn2c(N)c(-c3ncc[nH]3)nnc2c1-c1ccc(F)cc1` [Compound 27], the “solubility in aqueous DMSO” value in series [3] was “less soluble in aqueous DMSO”.

`Cc1cc(=O)[nH]c(-n2nc(C3CCCCC3)cc2NC(=O)c2cc(-c3ccccc3)on2)n1` [Compound 34] returned a half-maximal inhibitory concentration (IC50) at MUS81–EME1 (Table 2, in vitro) of over 10 µM.

On MUS81–EME1 (Table 2, in vitro), `Cc1cc(=O)[nH]c(-n2nc(-c3ccccc3)c(C)c2NC(=O)c2cc(-c3ccccc3)on2)n1` [Compound 35] yielded an IC50 of over 10 µM.

Molecule `Cc1cc(=O)[nH]c(-n2nc(-c3ccccc3)cc2NC(=O)c2cc(C3CCCCC3)on2)n1` [Compound 37] displayed an IC50 at MUS81–EME1 (Table 2, in vitro) of over 10 µM.

As for `Cc1cc(=O)[nH]c(-n2nc(-c3ccccc3)cc2NC(=O)c2cc(-c3ccccc3Br)on2)n1` [Compound 38], the IC50 on MUS81–EME1 (Table 2, in vitro) is over 10 µM.

On to `COc1ccc(-c2cc(C(=O)Nc3cc(-c4ccccc4)nn3-c3nc(C)cc(=O)[nH]3)no2)cc1` [Compound 40], for which the IC50 against MUS81–EME1 (Table 2, in vitro) was over 10 µM.

For `Cc1cc(=O)[nH]c(-n2nc(-c3ccccc3)cc2NC(=O)c2csc(-c3ccccc3)n2)n1` [Compound 42], the IC50 at MUS81–EME1 (Table 2, in vitro) is over 10 µM.

With `Cc1cc(=O)[nH]c(-n2nc(-c3ccccc3)cc2N(C)C(=O)c2cc(-c3ccccc3)on2)n1` [Compound 45], at MUS81–EME1 (Table 2, in vitro), the concentration for half-maximal inhibition (IC50) is over 10 µM. For the same molecule, on MUS81–EME1, the “activity in the in vitro assay” value was “no activity”. Moreover, the “effect on MUS81–EME1 binding to 3′ flap DNA (EMSA)” value in series [4] is given as “no significant effect”.

Consider `Cn1nc(-c2ccccc2)cc1NC(=O)c1cc(-c2ccccc2)on1` [Compound 46], for which the IC50 against MUS81–EME1 (Table 2, in vitro) is over 10 µM.

`O=C(Nc1cc(-c2ccccc2)nn1-c1ccccc1)c1cc(-c2ccccc2)on1` [Compound 47] displayed an IC50 at MUS81–EME1 (Table 2, in vitro) of over 10 µM.

Consider `O=C(Nc1cc(-c2ccccc2)nn1-c1ncccn1)c1cc(-c2ccccc2)on1` [Compound 48], for which the IC50 on MUS81–EME1 (Table 2, in vitro) is over 10 µM.

The molecule `COc1cc(C)nc(-n2nc(-c3ccccc3)cc2NC(=O)c2cc(-c3ccccc3)on2)n1` [Compound 49] registered an IC50 against MUS81–EME1 (Table 2, in vitro) of over 10 µM.

Consider `COCc1cc(=O)[nH]c(-n2nc(-c3ccccc3)cc2NC(=O)c2cc(-c3ccccc3)on2)n1` [Compound 51], for which the IC50 at MUS81–EME1 (Table 2, in vitro) was over 10 µM.
